{"source": "ChEMBL document CHEMBL1255489", "about": "“Low prevalence of fks1 hot spot 1 mutations in a worldwide collection of Candida strains” (2010)", "format_in_all_cases": "functional", "key": {"Candida albicans [1]": {"tested_on": "Candida albicans", "assay": "Antifungal activity against Candida albicans isolate 4700 expressing fks1 F641Y mutant after 24 to 48 hrs by broth microdilution method"}, "Candida tropicalis [2]": {"tested_on": "Candida tropicalis", "assay": "Antifungal activity against Candida tropicalis isolate 4748 expressing fks1 F641S mutant after 24 to 48 hrs by broth microdilution method"}, "Candida tropicalis [3]": {"tested_on": "Candida tropicalis", "assay": "Antifungal activity against Candida tropicalis isolate 4780 expressing fks1 F641S mutant after 24 to 48 hrs by broth microdilution method"}, "Nakaseomyces glabratus [4]": {"tested_on": "Nakaseomyces glabratus", "assay": "Antifungal activity against Candida glabrata isolate 4708 expressing fks1 S645P mutant after 24 to 48 hrs by broth microdilution method"}, "Nakaseomyces glabratus [5]": {"tested_on": "Nakaseomyces glabratus", "assay": "Antifungal activity against Candida glabrata isolate 4707 expressing fks2 S645P mutant after 24 to 48 hrs by broth microdilution method"}, "Nakaseomyces glabratus [6]": {"tested_on": "Nakaseomyces glabratus", "assay": "Antifungal activity against Candida glabrata isolate 4690 expressing fks2 L644W mutant after 24 to 48 hrs by broth microdilution method"}, "Nakaseomyces glabratus [7]": {"tested_on": "Nakaseomyces glabratus", "assay": "Antifungal activity against Candida glabrata isolate 4720 expressing fks2 S645P mutant after 24 to 48 hrs by broth microdilution method"}, "Candida albicans [8]": {"tested_on": "Candida albicans", "assay": "Antifungal activity against Candida albicans expressing fks1 F641S mutant after 24 to 48 hrs by broth microdilution method"}, "Candida albicans [9]": {"tested_on": "Candida albicans", "assay": "Antifungal activity against Candida albicans after 24 to 48 hrs by broth microdilution method"}, "Nakaseomyces glabratus [10]": {"tested_on": "Nakaseomyces glabratus", "assay": "Antifungal activity against Candida glabrata after 24 to 48 hrs by broth microdilution method"}, "Pichia kudriavzevii [11]": {"tested_on": "Pichia kudriavzevii", "assay": "Antifungal activity against Candida krusei after 24 to 48 hrs by broth microdilution method"}, "Candida tropicalis [12]": {"tested_on": "Candida tropicalis", "assay": "Antifungal activity against Candida tropicalis expressing fks1 L644W mutant by EUCAST method"}, "Pichia kudriavzevii [13]": {"tested_on": "Pichia kudriavzevii", "assay": "Antifungal activity against Candida krusei ATCC 6258 expressing fks1 L644W mutant by EUCAST method"}, "Candida": {"tested_on": "Candida", "assay": "Antifungal activity against Candida species after 24 to 48 hrs by broth microdilution method"}}, "note": "Starred links: 1 amine or outer side, 2 acyl side, 3 side chain; linkers in the order of their positions; H or OH if unused. Positions of bridges follow the written chain, without caps; N, C: chain ends. Non-standard residues stand in square brackets, D forms with d. Residues, ends and D or L forms follow the SMILES beside them. *: point of attachment. hTyr(3S-OH,4S-OH,3'-OSO3H) = N[C@H](C(=O)O)[C@H](O)[C@@H](O)c1ccc(O)c(OS(=O)(=O)O)c1; pTerphenylCO(4''-OnC5H11) = CCCCCOc1ccc(-c2ccc(-c3ccc(C(=O)*)cc3)cc2)cc1; Orn(4R-OH,5R-OH) = O=C([C@H](C[C@@H](O)[C@@H](O)N[*:3])N[*:1])[*:2]; hTyr(3S-OH,4S-OH) = N[C@H](C(=O)O)[C@H](O)[C@@H](O)c1ccc(O)cc1; Pro(3S-OH,4S-Me) = C[C@H]1CN[C@H](C(=O)O)[C@H]1O; X1 = CCCCCOc1ccc(-c2cc(-c3ccc(C(=O)*)cc3)no2)cc1; Gln(3R-OH) = NC(=O)C[C@@H](O)[C@H](N)C(=O)O; Hyp = O=C(O)[C@@H]1C[C@@H](O)CN1", "data": [{"smiles": "CCCCCOc1ccc(-c2cc(-c3ccc(C(=O)N[C@H]4C[C@@H](O)[C@@H](O)NC(=O)[C@@H]5[C@@H](O)[C@@H](C)CN5C(=O)[C@H]([C@H](O)CC(N)=O)NC(=O)[C@H]([C@H](O)[C@@H](O)c5ccc(O)c(OS(=O)(=O)O)c5)NC(=O)[C@@H]5C[C@@H](O)CN5C(=O)[C@H]([C@@H](C)O)NC4=O)cc3)no2)cc1", "note": "[MICAFUNGIN] (X1-[Orn(4R-OH,5R-OH)]T[Hyp][hTyr(3S-OH,4S-OH,3'-OSO3H)][Gln(3R-OH)][Pro(3S-OH,4S-Me)]; lactam 1-C)", "values": [{"measurement": "MIC", "setting": "Candida albicans [1]", "result": 0.25, "unit": "mg/L"}, {"measurement": "MIC", "setting": "Candida tropicalis [2]", "result": 0.5, "unit": "mg/L"}, {"measurement": "MIC", "setting": "Candida tropicalis [3]", "result": 0.5, "unit": "mg/L"}, {"measurement": "MIC", "setting": "Nakaseomyces glabratus [4]", "result": 4, "unit": "mg/L"}, {"measurement": "MIC", "setting": "Nakaseomyces glabratus [5]", "result": 2, "unit": "mg/L"}, {"measurement": "MIC", "setting": "Nakaseomyces glabratus [6]", "result": 0.06, "unit": "mg/L"}, {"measurement": "MIC", "setting": "Nakaseomyces glabratus [7]", "result": 4, "unit": "mg/L"}, {"measurement": "MIC", "setting": "Candida albicans [8]", "result": 0.5, "unit": "mg/L"}, {"measurement": "MIC", "setting": "Candida albicans [9]", "result": "≤ 0.06", "unit": "mg/L"}, {"measurement": "MIC", "setting": "Nakaseomyces glabratus [10]", "result": "≤ 0.06", "unit": "mg/L"}]}, {"smiles": "CCCCCOc1ccc(-c2ccc(-c3ccc(C(=O)N[C@H]4C[C@@H](O)[C@@H](O)NC(=O)[C@@H]5[C@@H](O)[C@@H](C)CN5C(=O)[C@H]([C@@H](C)O)NC(=O)[C@H]([C@H](O)[C@@H](O)c5ccc(O)cc5)NC(=O)[C@@H]5C[C@@H](O)CN5C(=O)[C@H]([C@@H](C)O)NC4=O)cc3)cc2)cc1", "note": "[ANIDULAFUNGIN] ({pTerphenylCO(4''-OnC5H11)}-[Orn(4R-OH,5R-OH)]T[Hyp][hTyr(3S-OH,4S-OH)]T[Pro(3S-OH,4S-Me)]; lactam 1-C)", "values": [{"measurement": "MIC", "setting": "Candida albicans [1]", "result": 0.12, "unit": "mg/L"}, {"measurement": "MIC", "setting": "Candida tropicalis [2]", "result": 1, "unit": "mg/L"}, {"measurement": "MIC", "setting": "Candida tropicalis [3]", "result": 1, "unit": "mg/L"}, {"measurement": "MIC", "setting": "Nakaseomyces glabratus [4]", "result": 4, "unit": "mg/L"}, {"measurement": "MIC", "setting": "Nakaseomyces glabratus [5]", "result": 4, "unit": "mg/L"}, {"measurement": "MIC", "setting": "Nakaseomyces glabratus [6]", "result": 0.12, "unit": "mg/L"}, {"measurement": "MIC", "setting": "Nakaseomyces glabratus [7]", "result": 4, "unit": "mg/L"}, {"measurement": "MIC", "setting": "Candida albicans [8]", "result": 0.12, "unit": "mg/L"}, {"measurement": "MIC", "setting": "Pichia kudriavzevii [11]", "result": 0.06, "unit": "mg/L"}, {"measurement": "MIC", "setting": "Candida albicans [9]", "result": "≤ 0.12", "unit": "mg/L"}, {"measurement": "MIC", "setting": "Nakaseomyces glabratus [10]", "result": "≤ 0.12", "unit": "mg/L"}]}, {"smiles": "CC[C@H](C)C[C@H](C)CCCCCCCCC(=O)N[C@H]1C[C@@H](O)[C@@H](NCCN)NC(=O)[C@@H]2[C@@H](O)CCN2C(=O)[C@H]([C@H](O)CCN)NC(=O)[C@H]([C@H](O)[C@@H](O)c2ccc(O)cc2)NC(=O)[C@@H]2C[C@@H](O)CN2C(=O)[C@H]([C@@H](C)O)NC1=O", "note": "[CASPOFUNGIN]", "values": [{"measurement": "MIC", "setting": "Candida albicans [1]", "result": 1, "unit": "mg/L"}, {"measurement": "MIC", "setting": "Candida tropicalis [2]", "result": 4, "unit": "mg/L"}, {"measurement": "MIC", "setting": "Candida tropicalis [3]", "result": 4, "unit": "mg/L"}, {"measurement": "MIC", "setting": "Nakaseomyces glabratus [4]", "result": "≥ 8", "unit": "mg/L"}, {"measurement": "MIC", "setting": "Nakaseomyces glabratus [5]", "result": 8, "unit": "mg/L"}, {"measurement": "MIC", "setting": "Nakaseomyces glabratus [6]", "result": 0.25, "unit": "mg/L"}, {"measurement": "MIC", "setting": "Nakaseomyces glabratus [7]", "result": "≥ 8", "unit": "mg/L"}, {"measurement": "MIC", "setting": "Candida albicans [8]", "result": 2, "unit": "mg/L"}, {"measurement": "MIC", "setting": "Pichia kudriavzevii [11]", "result": 1, "unit": "mg/L"}, {"measurement": "MIC", "setting": "Candida tropicalis [12]", "result": 1, "unit": "mg/L"}, {"measurement": "MIC", "setting": "Pichia kudriavzevii [13]", "result": 8, "unit": "mg/L"}, {"measurement": "MIC", "setting": "Candida albicans [9]", "result": "≤ 0.06", "unit": "mg/L"}, {"measurement": "MIC", "setting": "Nakaseomyces glabratus [10]", "result": "≤ 0.06", "unit": "mg/L"}, {"measurement": "MIC", "setting": "Candida", "result": "≤ 0.008", "unit": "mg/L"}]}]}
